The supplement of paper PMC11061612

Tests used:
NB12 (Neuroblastoma) [1] = assay: combination Emax (second highest fraction inhibited in the dose matrix, 72 h); higher = more inhibition; extreme values may be limits of the assay
Procedure, shortened: (§1)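 Cell lines in DMEM/F12 or RPMI with 10% FBS were plated in 1536-well plates, held 24 hours at 37°C, 5% CO2, then given two-drug dose matrices for 72 hours (DMSO typically 0.2%). Viability was read by CellTiter-Glo 2.0 luminescence and scaled as inhibition from 0 (vehicle wells) to 1 (blank wells). Combination Emax is the second-highest inhibition in the matrix; Bliss excess is observed combination effect minus expected EA + EB − EA·EB, EA and EB being single-agent effects.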

SK-MEL-2 (Melanoma) [2] = assay: as above
Procedure, shortened: as §1

[3] = tested on: L-1236 (Hodgkin's Lymphoma); assay: as above
Procedure, shortened: as §1

SF539 (Glioblastoma) = assay: as above
Procedure, shortened: as §1

[4] = tested on: HEC-1 (Endometrial Carcinoma); assay: as above
Procedure, shortened: as §1

[5] = tested on: MKN45 (Gastric Carcinoma); assay: as above
Procedure, shortened: as §1

[6] = tested on: OVMIU (Ovarian Carcinoma); assay: as above
Procedure, shortened: as §1

[7] = tested on: VAL (B-Cell Non-Hodgkin's Lymphoma); assay: as above
Procedure, shortened: as §1

NB12 (Neuroblastoma) [8] = assay: Bliss excess, mean over the matrix (fraction); higher = more synergy
Procedure, shortened: as §1

SK-MEL-2 (Melanoma) [9] = assay: as above
Procedure, shortened: as §1
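For Bliss excess, mean over the matrix in this document: after 72 h of two-drug dosing.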

Structure (SMILES) | combination Emax (NB12 (Neuroblastoma) [1]) | combination Emax (SK-MEL-2 (Melanoma) [2]) | combination Emax [3] | combination Emax (SF539 (Glioblastoma)) | combination Emax [4] | combination Emax [5] | combination Emax [6] | combination Emax [7] | Bliss excess (NB12 (Neuroblastoma) [8]) | Bliss excess (SK-MEL-2 (Melanoma) [9])
CN(C)CCCOc1ccc(-c2ccc3ncc4c(c3c2)n(C2CCOCC2)c(=O)n4C)cn1 [AZD0156] + O=C(c1cc(Cc2n[nH]c(=O)c3ccccc23)ccc1F)N1CCN(C(=O)C2CC2)CC1 [Olaparib] (first compound max 3 µM, partner max 3 µM) | 0.363 | 0.0599 | 0.326 | 0.501 | 0.139 | 0.356 | 0.347 | 0.542 | 0.0534 | -0.045
C=CCn1c(=O)c2cnc(Nc3ccc(N4CCN(C)CC4)cc3)nc2n1-c1cccc(C(C)(C)O)n1 [AZD1775] + C1CN(CCC1(C(=O)N[C@@H](CCO)C2=CC=C(C=C2)Cl)N)C3=NC=NC4=C3C=CN4 [Capivasertib] (first compound max 3 µM, partner max 3 µM) | 0.746 | 0.637 | 0.876 | 0.967 | 0.615 | 0.741 | 0.749 | 0.841 | -0.0491 | -0.0472
COc1nnc2ccc(N3CCC(c4ccc(OCCN5CCN(C)C(=O)[C@H]5C)cc4)CC3)nn12 [AZD5153] + C=CCn1c(=O)c2cnc(Nc3ccc(N4CCN(C)CC4)cc3)nc2n1-c1cccc(C(C)(C)O)n1 [AZD1775] (first compound max 1 µM, partner max 1 µM) | 0.958 | 0.635 | 0.999 | 0.944 | 0.827 | 0.696 | 0.86 | 0.792 | -0.0313 | -0.116
COc1nnc2ccc(N3CCC(c4ccc(OCCN5CCN(C)C(=O)[C@H]5C)cc4)CC3)nn12 [AZD5153] + CC1(C)CCC(CN2CCN(c3ccc(C(=O)NS(=O)(=O)c4ccc(NCC5CCOCC5)c([N+](=O)[O-])c4)c(Oc4cnc5[nH]ccc5c4)c3)CC2)=C(c2ccc(Cl)cc2)C1 [Venetoclax] (first compound max 1 µM, 7x7, partner max 1 µM) | 0.971 | 0.519 | 0.997 | 0.604 | 0.602 | 0.566 | 0.666 | 0.996 | 0.0928 | -0.0035
COc1nnc2ccc(N3CCC(c4ccc(OCCN5CCN(C)C(=O)[C@H]5C)cc4)CC3)nn12 [AZD5153] + CCN(CCO)CCCOc1ccc2c(Nc3cc(CC(=O)Nc4cccc(F)c4)[nH]n3)ncnc2c1 [AZD2811] (first compound max 1 µM, 7x7, partner max 1 µM) | 0.937 | 0.485 | 0.988 | 0.699 | 0.607 | 0.556 | 0.706 | 0.727 | 0.0269 | -0.0912
COc1nnc2ccc(N3CCC(c4ccc(OCCN5CCN(C)C(=O)[C@H]5C)cc4)CC3)nn12 [AZD5153] + C[C@@H]1COCCN1C2=NC(=NC(=C2)C3(CC3)[S@](=N)(=O)C)C4=C5C=CNC5=NC=C4 [AZD6738] (first compound max 1 µM, 7x7, partner max 10 µM) | 0.958 | 0.693 | 0.998 | 0.882 | 0.884 | 0.782 | 0.795 | 0.835 | 0.0067 | 0.0037
COc1nnc2ccc(N3CCC(c4ccc(OCCN5CCN(C)C(=O)[C@H]5C)cc4)CC3)nn12 [AZD5153] + Cc1c2c(nn1C)CSCc1cc(n(C)n1)CSc1cc(c3ccccc3c1)OCCCc1c(C(=O)O)n(C)c3c-2c(Cl)ccc13 [AZD5991] (first compound max 1 µM, 7x7, partner max 1 µM) | 0.942 | 0.984 | 1 | 0.638 | 0.942 | 0.497 | 0.813 | 0.854 | 0.0267 | -0.0198
COc1nnc2ccc(N3CCC(c4ccc(OCCN5CCN(C)C(=O)[C@H]5C)cc4)CC3)nn12 [AZD5153] + Cn1cnc2c(F)c(Nc3ccc(Br)cc3Cl)c(C(=O)NOCCO)cc21 [Selumetinib] (first compound max 1 µM, 7x7, partner max 10 µM) | 0.799 | 0.926 | 1 | 0.653 | 0.595 | 0.744 | 0.737 | 0.738 | -0.0428 | -0.0349
CS(=O)(=O)CCNCc1ccc(-c2ccc3ncnc(Nc4ccc(OCc5cccc(F)c5)c(Cl)c4)c3c2)o1 [Lapatinib] + NC1(c2ccc(-c3nc4ccn5c(=O)[nH]nc5c4cc3-c3ccccc3)cc2)CCC1 [MK-2206] (first compound max 10 µM, 7x7, partner max 10 µM) | 0.843 | 0.692 | 0.888 | 0.953 |  | 0.617 | 0.891 | 0.898 | -0.0253 | -0.0096
CCc1c2c(nc3ccc(O)cc13)-c1cc3c(c(=O)n1C2)COC(=O)[C@]3(O)CC [SN-38] + O=C(c1cc(Cc2n[nH]c(=O)c3ccccc23)ccc1F)N1CCN(C(=O)C2CC2)CC1 [Olaparib] (first compound max 0.3 µM, 7x7, partner max 10 µM) |  |  | 0.87 | 0.99 | 0.761 | 0.847 | 0.479 | 0.994 |  | 
CC(=O)Nc1cccc(-n2c(=O)n(C3CC3)c(=O)c3c(Nc4ccc(I)cc4F)n(C)c(=O)c(C)c32)c1 [Trametinib] + Cc1nc(-c2cn3c(n2)-c2ccc(-c4cnn(C(C)(C)C(N)=O)c4)cc2OCC3)n(C(C)C)n1 [Taselisib] (first compound max 1 µM, 7x7, partner max 10 µM) |  |  | 0.513 | 0.989 | 0.346 | 0.799 | 0.973 | 0.424 |  | 
CC1(C)CCC(CN2CCN(c3ccc(C(=O)NS(=O)(=O)c4ccc(NCC5CCOCC5)c([N+](=O)[O-])c4)c(Oc4cnc5[nH]ccc5c4)c3)CC2)=C(c2ccc(Cl)cc2)C1 [Venetoclax] + C1CN(CCC1(C(=O)N[C@@H](CCO)C2=CC=C(C=C2)Cl)N)C3=NC=NC4=C3C=CN4 [Capivasertib] (first compound max 1 µM, 7x7, partner max 3 µM) |  |  | 0.644 | 0.551 | 0.102 | 0.581 | 0.285 | 1 |  | 
CC1(C)CCC(CN2CCN(c3ccc(C(=O)NS(=O)(=O)c4ccc(NCC5CCOCC5)c([N+](=O)[O-])c4)c(Oc4cnc5[nH]ccc5c4)c3)CC2)=C(c2ccc(Cl)cc2)C1 [Venetoclax] + C=CCn1c(=O)c2cnc(Nc3ccc(N4CCN(C)CC4)cc3)nc2n1-c1cccc(C(C)(C)O)n1 [AZD1775] (first compound max 1 µM, partner max 1 µM) |  |  | 0.865 | 0.972 | 0.182 | 0.765 | 0.682 | 1 |  | 
CC1(C)CCC(CN2CCN(c3ccc(C(=O)NS(=O)(=O)c4ccc(NCC5CCOCC5)c([N+](=O)[O-])c4)c(Oc4cnc5[nH]ccc5c4)c3)CC2)=C(c2ccc(Cl)cc2)C1 [Venetoclax] + CCN(CCO)CCCOc1ccc2c(Nc3cc(CC(=O)Nc4cccc(F)c4)[nH]n3)ncnc2c1 [AZD2811] (first compound max 1 µM, 7x7, partner max 1 µM) |  |  | 0.718 | 0.481 | 0.16 | 0.588 | 0.289 | 1 |  | 
CC1(C)CCC(CN2CCN(c3ccc(C(=O)NS(=O)(=O)c4ccc(NCC5CCOCC5)c([N+](=O)[O-])c4)c(Oc4cnc5[nH]ccc5c4)c3)CC2)=C(c2ccc(Cl)cc2)C1 [Venetoclax] + CN(C)CCCOc1ccc(-c2ccc3ncc4c(c3c2)n(C2CCOCC2)c(=O)n4C)cn1 [AZD0156] (first compound max 1 µM, 7x7, partner max 1 µM) |  |  | 0.705 | 0.292 | 0.163 | 0.688 | 0.345 | 1 |  | 
CC1(C)CCC(CN2CCN(c3ccc(C(=O)NS(=O)(=O)c4ccc(NCC5CCOCC5)c([N+](=O)[O-])c4)c(Oc4cnc5[nH]ccc5c4)c3)CC2)=C(c2ccc(Cl)cc2)C1 [Venetoclax] + COc1cc(Nc2ncc3c(n2)-c2ccc(Cl)cc2C(c2c(F)cccc2OC)=NC3)ccc1C(=O)O [Alisertib] (first compound max 1 µM, 7x7, partner max 10 µM) |  |  | 0.678 | 0.454 | 0.165 | 0.563 | 0.522 | 1 |  | 
CC1(C)CCC(CN2CCN(c3ccc(C(=O)NS(=O)(=O)c4ccc(NCC5CCOCC5)c([N+](=O)[O-])c4)c(Oc4cnc5[nH]ccc5c4)c3)CC2)=C(c2ccc(Cl)cc2)C1 [Venetoclax] + C[C@@H]1COCCN1C2=NC(=NC(=C2)C3(CC3)[S@](=N)(=O)C)C4=C5C=CNC5=NC=C4 [AZD6738] (first compound max 1 µM, 7x7, partner max 10 µM) |  |  | 0.847 | 0.87 | 0.41 | 0.678 | 0.537 | 1 |  | 
CC1(C)CCC(CN2CCN(c3ccc(C(=O)NS(=O)(=O)c4ccc(NCC5CCOCC5)c([N+](=O)[O-])c4)c(Oc4cnc5[nH]ccc5c4)c3)CC2)=C(c2ccc(Cl)cc2)C1 [Venetoclax] + C[C@@H](Nc1cc(F)cc(F)c1)c1cc(C(=O)N(C)C)cc2c(=O)cc(N3CCOCC3)oc12 [AZD8186] (first compound max 1 µM, 7x7, partner max 3 µM) |  |  | 0.665 | 0.287 | 0.0634 | 0.602 | 0.575 | 1 |  | 
CC1(C)CCC(CN2CCN(c3ccc(C(=O)NS(=O)(=O)c4ccc(NCC5CCOCC5)c([N+](=O)[O-])c4)c(Oc4cnc5[nH]ccc5c4)c3)CC2)=C(c2ccc(Cl)cc2)C1 [Venetoclax] + Cc1cc2ncnn2cc1Nc1ncc2c(n1)n(C1CCOCC1)c(=O)n2C [AZD7648] (first compound max 1 µM, 7x7, partner max 10 µM) |  |  | 0.621 | 0.341 | 0.167 | 0.588 | 0.374 | 1 |  | 
CC1(C)CCC(CN2CCN(c3ccc(C(=O)NS(=O)(=O)c4ccc(NCC5CCOCC5)c([N+](=O)[O-])c4)c(Oc4cnc5[nH]ccc5c4)c3)CC2)=C(c2ccc(Cl)cc2)C1 [Venetoclax] + Cn1cnc2c(F)c(Nc3ccc(Br)cc3Cl)c(C(=O)NOCCO)cc21 [Selumetinib] (first compound max 1 µM, 7x7, partner max 3 µM) |  |  | 0.731 | 0.217 | 0.0851 | 0.65 | 0.479 | 1 |  | 
